According to US5030427A, “Gallium purification” (Monsanto Company, priority 1988, dated 1991):

Assay: Aqueous solubilities of N-alkylalkano and N-H hydroxamic acids (25° C.)
Format: physicochemical
Excerpt: It is desirable that the extractant for metals have low solubility in water in order to avoid loss of extractant in aqueous media. In Table 1, the aqueous solubilities of a number of hydroxamic acids are reported.

CCCCCCCCCC(=O)N(C)O [N-methyldecanohydroxamic acid]
SOLUBILITY (25° C.) (aqueous, 25° C.): 5.48 × 10^-4 molarity

CCCCCCCCC(=O)N(C)O [N-methylnonanohydroxamic acid]
aqueous solubility (in words) (aqueous media): relatively high aqueous solubility
